# Measured values published in ChEMBL document CHEMBL3390847, “Boronic acids in medicinal chemistry: anticancer, antibacterial and antiviral applications” (Medchemcomm, 2010).
# pEC50, pIC50, pKi: −log10 of the molar value.
# Key:
# [1] = Cytotoxicity against human MCF10A cells; format: cell-based; details: MCF-10A
# [2] = Cytotoxicity against human MCF12A cells; format: cell-based; details: MCF-12A
# [3] = molecular target: T1, Epidermal growth factor receptor (Homo sapiens, UniProt P00533); test: Inhibition of EGFR kinase (unknown origin) using poly(Glu:Tyr) as substrate at 1 uM
# [4] = molecular target: T1, Epidermal growth factor receptor; test: Inhibition of EGFR kinase (unknown origin) using poly(Glu:Tyr) as substrate
# [5] = tested on: A-431; test: Cytotoxicity against human A431 cells; format: functional
# [6] = molecular target: Tubulin; test: Inhibition of tubulin polymerization (unknown origin); format: protein-complex assay, Homo sapiens
# [7] = tested on: MCF7; test: Cytotoxicity against human MCF7 cells; format: functional, cell-based
# [8] = Inhibition of tubulin polymerization in rat A10 cells assessed as microtubule loss; format: cell-based
# [9] = molecular target: T2, Proteasome Macropain subunit MB1 (Homo sapiens, UniProt P28074); test: Inhibition of chymotrypsin-like activity of proteasome beta5 subunit (unknown origin)
# T2 sequence (P28074 whole entry): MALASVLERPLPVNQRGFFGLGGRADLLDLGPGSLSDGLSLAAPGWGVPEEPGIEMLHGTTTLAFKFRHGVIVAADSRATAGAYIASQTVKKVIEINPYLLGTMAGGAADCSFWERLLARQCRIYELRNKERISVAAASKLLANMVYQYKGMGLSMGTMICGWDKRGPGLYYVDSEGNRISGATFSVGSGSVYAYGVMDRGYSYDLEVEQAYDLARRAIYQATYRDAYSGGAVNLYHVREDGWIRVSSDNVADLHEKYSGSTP
# [10] = molecular target: T3, Proteasome subunit beta type-7 (Homo sapiens, UniProt Q99436); test: Inhibition of trypsin-like activity of proteasome beta7 subunit (unknown origin)
# T3 sequence (Q99436 whole entry): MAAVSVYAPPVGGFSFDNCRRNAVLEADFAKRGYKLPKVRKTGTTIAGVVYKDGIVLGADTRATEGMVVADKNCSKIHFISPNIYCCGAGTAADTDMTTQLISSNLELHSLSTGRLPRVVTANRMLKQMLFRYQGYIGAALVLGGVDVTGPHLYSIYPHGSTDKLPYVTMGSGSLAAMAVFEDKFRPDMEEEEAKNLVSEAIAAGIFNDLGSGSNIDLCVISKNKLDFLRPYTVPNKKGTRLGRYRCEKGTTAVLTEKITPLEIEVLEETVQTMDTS
# [11] = Inhibition of post-glutamyl peptide hydrolysis proteasome subunit (unknown origin); set-up: species or system Homo sapiens
# [12] = Inhibition of AmpC beta-lactamase (unknown origin)
# [13] = tested on: B16; test: Cytotoxicity against mouse B16 cells; format: functional, cell-based
# [14] = Cytotoxicity against human 1-87 cells; format: functional, cell-based
# [15] = molecular target: Tubulin; test: Inhibition of tubulin polymerization (unknown origin) after 30 mins; format: protein-complex assay, Homo sapiens
# [16] = tested on: Bacillus anthracis; test: Antimicrobial activity against Bacillus anthracis; format: functional
# [17] = tested on: Staphylococcus aureus; test: Antimicrobial activity against Staphylococcus aureus […] after 18 hrs by broth macrodilution assay; format: functional
# [18] = tested on: Staphylococcus epidermidis; test: Antimicrobial activity against Staphylococcus epidermidis ATCC 12228 after 18 hrs by broth macrodilution assay; format: functional; details: ATCC 12228, 18 h
# [19] = molecular target: Tubulin (Homo sapiens) (UniProt P68371+Q9H4B7+P0DPH7+P68366+Q13509+Q71U36+P04350+Q3ZCM7+P07437+P68363+Q9BQE3+Q6PEY2+Q13885+Q9BVA1+Q9BUF5); test: Displacement of [3H]colchicine from tubulin (unknown origin) at 5 uM; format: protein-complex assay
# [20] = Inhibition of AmpC beta-lactamase N289A mutant (unknown origin)
# [21] = Inhibition of TEM-1 (unknown origin)
# [22] = Inhibition of TEM-30 (unknown origin)
# [23] = tested on: Bacillus subtilis; test: Antimicrobial activity against Bacillus subtilis ATCC 23857 after 18 hrs by broth macrodilution assay; format: functional; details: ATCC 23857, 18 h
# [24] = tested on: Moraxella catarrhalis; test: Antimicrobial activity against Moraxella catarrhalis after 18 hrs by broth macrodilution assay; format: functional
# [25] = Inhibition of beta-lactamase SHV2 G238S mutant (unknown origin) expressed in Escherichia coli DH10B using nitrocefin as substrate
# [26] = Inhibition of beta-lactamase SHV2 D104K mutant (unknown origin) expressed in Escherichia coli DH10B using nitrocefin as substrate
# T1 sequence (P00533 whole entry): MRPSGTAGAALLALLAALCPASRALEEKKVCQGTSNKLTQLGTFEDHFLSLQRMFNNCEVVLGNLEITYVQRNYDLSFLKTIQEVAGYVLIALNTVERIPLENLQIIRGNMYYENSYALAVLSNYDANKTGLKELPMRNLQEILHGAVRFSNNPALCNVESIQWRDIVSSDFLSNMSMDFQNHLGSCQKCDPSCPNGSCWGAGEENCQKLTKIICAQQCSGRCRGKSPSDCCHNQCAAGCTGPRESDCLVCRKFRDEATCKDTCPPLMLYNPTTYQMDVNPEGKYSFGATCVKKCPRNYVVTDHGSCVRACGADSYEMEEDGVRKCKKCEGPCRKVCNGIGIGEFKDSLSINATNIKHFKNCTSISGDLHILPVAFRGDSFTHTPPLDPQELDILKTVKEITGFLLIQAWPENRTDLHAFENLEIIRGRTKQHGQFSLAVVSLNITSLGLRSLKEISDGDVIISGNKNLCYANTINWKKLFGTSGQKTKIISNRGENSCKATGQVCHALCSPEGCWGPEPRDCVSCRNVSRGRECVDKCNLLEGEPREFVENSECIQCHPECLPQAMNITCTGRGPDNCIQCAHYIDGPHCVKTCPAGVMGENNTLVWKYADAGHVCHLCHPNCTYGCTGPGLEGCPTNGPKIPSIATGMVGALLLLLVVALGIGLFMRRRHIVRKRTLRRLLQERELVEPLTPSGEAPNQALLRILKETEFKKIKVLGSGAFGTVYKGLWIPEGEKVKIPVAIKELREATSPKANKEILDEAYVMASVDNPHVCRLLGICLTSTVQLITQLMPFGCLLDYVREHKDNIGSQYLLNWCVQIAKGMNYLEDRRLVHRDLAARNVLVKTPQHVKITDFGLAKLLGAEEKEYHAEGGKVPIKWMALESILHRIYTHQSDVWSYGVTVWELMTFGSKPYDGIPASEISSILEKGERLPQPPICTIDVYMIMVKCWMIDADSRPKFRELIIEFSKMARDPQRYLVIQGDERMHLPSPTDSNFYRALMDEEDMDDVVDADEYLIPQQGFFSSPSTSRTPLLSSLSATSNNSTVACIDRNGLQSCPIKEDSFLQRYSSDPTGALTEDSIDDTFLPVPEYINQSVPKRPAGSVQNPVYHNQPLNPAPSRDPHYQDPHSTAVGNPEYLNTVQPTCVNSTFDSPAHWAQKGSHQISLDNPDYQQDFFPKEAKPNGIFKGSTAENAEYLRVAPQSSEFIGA
smiles,measurement,setting,value
O=C(/C=C/c1ccc(I)cc1)c1ccc(OCB(O)O)cc1,pIC50,[1],4.42
same,pIC50,[2],4.00
OB(O)c1ccc(COc2ccc3ncnc(Nc4cccc(Cl)c4)c3c2)cc1,inhibition,[3],55%
same,pIC50,[4],6.07
same,GI50,[5],1820 nM
COc1cc(C(=O)/C=C/c2cc(OC)c(OC)c(OC)c2)ccc1O,pIC50,[6],< 4.40
same,pIC50,[7],< 5.60
same,pEC50,[8],4.74
OB(O)/C=C/COc1ccc2ncnc(Nc3cccc(Cl)c3)c2c1,inhibition,[3],63%
same,pIC50,[4],6.57
same,GI50,[5],680 nM
CC(C)C[C@H](NC(=O)[C@H](Cc1ccccc1)NC(=O)[C@H](Cc1ccccc1)NC(=O)c1cnccn1)B1O[C@@H]2[C@H]3CC[C@H](C3(C)C)[C@]2(C)O1,pIC50,[9],9.40
same,pIC50,[10],< 7.70
same,pIC50,[11],8.08
O=C(Cc1cccs1)N[C@H](B(O)O)c1ccccc1,pKi,[12],7.46
COc1ccc(/C=C\c2cc(OC)c(OC)c(OC)c2)cc1C(=O)O,pIC50,[13],3.80
same,pIC50,[14],3.96
same,pIC50,[15],< 4.00
COc1cc(/C=C\c2cccc(B(O)O)c2)cc(OC)c1,pIC50,[13],5.74
same,pIC50,[14],5.70
same,pIC50,[15],< 4.00
COc1cc(/C=C\c2cccc(B(O)O)c2)cc(OC)c1OC,pIC50,[13],6.31
same,pIC50,[14],5.68
same,pIC50,[15],< 4.00
CC[C@H]1OC(=O)[C@H](C)[C@@H](O[C@H]2C[C@@](C)(OC)[C@@H](O)[C@H](C)O2)[C@H](C)[C@@H](O[C@@H]2O[C@H](C)C[C@H](N(C)C)[C@H]2O)[C@](C)(O)C[C@@H](C)C(=O)[C@H](C)[C@@H](O)[C@]1(C)O [ERYTHROMYCIN],MIC90,[16],1.5 µg/mL
COc1cc(/C=C\c2ccc(OC)c(B(O)O)c2)cc(OC)c1,pIC50,[13],7.72
same,pIC50,[14],7.55
same,pIC50,[15],4.68
Cc1ccc2cccc(OB(c3ccc(Cl)cc3)c3ccc(Cl)cc3)c2n1,MIC,[17],16 µg/mL
same,MIC,[18],8 µg/mL
COc1cc(/C=C/C(=O)c2cc(OC)c(OC)c(OC)c2)ccc1O,pIC50,[6],5.59
same,pIC50,[7],6.96
same,pEC50,[8],6.01
CC1(C)[C@H]2CC3OB(COc4ccc5ncnc(Nc6cccc(Cl)c6)c5c4)O[C@@]3(C)[C@@H]1C2 (stereo not given in full),inhibition,[3],65%
same,pIC50,[4],6.70
same,GI50,[5],540 nM
CC(=O)OCC1=C(C(=O)O)N2C(=O)[C@@H](NC(=O)Cc3cccs3)[C@H]2SC1 [CEPHALOTHIN],pKi,[12],6.49
CC(C)C[C@H](NC(=O)[C@H](Cc1ccc(O)cc1)NC(=O)[C@H](Cc1ccccc1)NC(=O)c1cnccn1)B1O[C@@H]2[C@H]3CC[C@H](C3(C)C)[C@]2(C)O1,pIC50,[9],9.47
same,pIC50,[10],< 7.70
same,pIC50,[11],8.27
COc1ccc(/C=C\c2cc(OC)c(OC)c(OC)c2)cc1B(O)O,pIC50,[6],5.82
same,pIC50,[7],7.77
same,pEC50,[8],7.24
same,inhibition,[19],79%
same,pIC50,[13],8.20
same,pIC50,[14],7.89
same,pIC50,[15],4.66
O=C(Cc1cccs1)N[C@H](B(O)O)c1cccc(C(=O)O)c1,pKi,[12],9.00
same,pKi,[20],7.77
same,pKi,[21],7.19
same,pKi,[22],5.11
Clc1cccc(B(Oc2cccc3cccnc23)c2cccc(Cl)c2)c1,MIC,[17],1 µg/mL
same,MIC,[18],2 µg/mL
same,MIC,[23],2 µg/mL
same,MIC,[24],2 µg/mL
CO/N=C(/C(=O)NCB(O)O)c1csc(N)n1,pKi,[25],5.17
same,pKi,[26],6.15
COc1cc(/C=C/C(=O)c2cc(OC)c(OC)c(OC)c2)ccc1B(O)O,pIC50,[6],4.51
same,pIC50,[7],6.05
same,pEC50,[8],4.78
